Results: patent publication US9523100B2, “Pesticidal compositions and related methods” (DOW AGROSCIENCES LLC, priority 2013, dated 2016)
Where two headings read alike, the source gives them in different places.

Columns and labels:
[1] = tested on: Green Peach Aphid (GPA) (Myzus persicae) (MYZUPE); test: Bioassay for Green Peach Aphid (GPA), foliar spray on cabbage seedlings; format: in vivo; conditions: 72 h, read-out: GPA 200 ppm, % Control (or Mortality) rating
Procedure, shortened: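 Cabbage seedlings infested with 20-50 GPA (wingless adults and nymphs) one day before spraying to runoff with 200 ppm compound; four pots per treatment. Live aphids counted after three days at ~25° C; percent control by Abbott's correction against solvent-sprayed plants.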

[2] = tested on: Sweetpotato Whitefly-Crawler (WF) (Bemisia tabaci) (BEMITA); test: Insecticidal test for Sweetpotato Whitefly-Crawler (WF) in foliar spray assay on cotton plants; format: in vivo; conditions: 216 h, read-out: WF 200 ppm, % Control (or Mortality) rating
Procedure, shortened: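 Cotton plants carrying 200–400 whitefly eggs sprayed to run-off on both leaf surfaces at 200 ppm (acetone/0.025% Tween 20), four plants per treatment. After 9 days at about 25 °C, live 3rd–4th instar nymphs counted; Abbott-corrected percent control versus solvent check.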

[3] = 200 ppm foliar spray on cabbage seedlings, graded after three days, Abbott corrected % control
[4] = 200 ppm foliar spray on cotton plants, graded after 9 days, Abbott corrected % control

SMILES: CCN(C(=O)CCNC(=O)C(C)CC(F)(F)F)c1cn(-c2cccnc2)nc1Cl (stereo not shown) [Compound F44, N-(3-((3-Chloro-1-(pyridin-3-yl)-1H-pyrazol-4-yl)(ethyl)amino)-3-oxopropyl)-4,4,4-trifluoro-2-methylbutanamide]
- mortality at 200 ppm [1, 3]: 80 to 100%
- mortality at 200 ppm [2, 4]: 80 to 100%

SMILES: CN(C(=O)[C@@H]1C=C[C@H](NC(=O)C(F)(F)F)C1)c1cn(-c2cccnc2)nc1Cl [Compound F126, (1S,4R)-N-(3-chloro-1-(pyridin-3-yl)-1H-pyrazol-4-yl)-N-methyl-4-(2,2,2-trifluoroacetamido)cyclopent-2-enecarboxamide]
- mortality at 200 ppm [1, 3]: 0 to 80%
- mortality at 200 ppm [2, 4]: 80 to 100%

SMILES: CCN(C(=O)CCNC(=O)CC#N)c1cn(-c2cccnc2)nc1Cl [Compound F101, N-(3-Chloro-1-(pyridin-3-yl)-1H-pyrazol-4-yl)-3-(2-cyanoacetamido)-N-ethylpropanamide]
- mortality at 200 ppm [1, 3]: 0 to 80%
- mortality at 200 ppm [2, 4]: 80 to 100%

SMILES: CC(=O)CCC(=O)N(C)c1cn(-c2cccnc2)nc1C [FA69, N-methyl-N-(3-methyl-1-(pyridin-3-yl)-1H-pyrazol-4-yl)-4-oxopentanamide]
- mortality at 200 ppm [1, 3]: 0 to 80%
- mortality at 200 ppm [2, 4]: 80 to 100%

SMILES: CCN(C(=O)CC/C(C)=N/OCCCCF)c1cn(-c2cccnc2)nc1Cl [FA20, (E/Z)-N-(3-chloro-1-(pyridin-3-yl)-1H-pyrazol-4-yl)-N-ethyl-4-((4-fluorobutoxy)imino)pentanamide]
- mortality at 200 ppm [1, 3]: 80 to 100%
- mortality at 200 ppm [2, 4]: 80 to 100%

SMILES: CCN(C(=O)CCC1CNC1=O)c1cn(-c2cccnc2)nc1Cl (stereo not shown) [Compound F50]
- mortality at 200 ppm [1, 3]: 0 to 80%
- mortality at 200 ppm [2, 4]: 80 to 100%

SMILES: CCN(C(=O)CC1CCNC1=O)c1cn(-c2cccnc2)nc1Cl (stereo not shown) [FA63]
- mortality at 200 ppm [1, 3]: 80 to 100%
- mortality at 200 ppm [2, 4]: 80 to 100%

SMILES: Cc1nn(-c2cccnc2)cc1N(C)C(=O)CCC(=O)N(C)C [Compound F62, N1,N1,N4-trimethyl-N4-(3-methyl-1-(pyridin-3-yl)-1H-pyrazol-4-yl)succinamide]
- mortality at 200 ppm [1, 3]: 80 to 100%
- mortality at 200 ppm [2, 4]: 80 to 100%

SMILES: CCN(C(=O)CCN1CCCCC1=O)c1cn(-c2cccnc2)nc1Cl [Compound F8, N-(3-Chloro-1-(pyridin-3-yl)-1H-pyrazol-4-yl)-N-ethyl-3-(2-oxopiperidin-1-yl)propanamide]
- mortality at 200 ppm [1, 3]: 80 to 100%
- mortality at 200 ppm [2, 4]: 80 to 100%

SMILES: CCN(C(=O)C1CCCN(C(=O)OC(C)(C)C)C1)c1cn(-c2cccnc2)nc1Cl (stereo not shown) [FA18, tert-Butyl 3-((3-chloro-1-(pyridin-3-yl)-1H-pyrazol-4-yl)(ethyl)carbamoyl) piperidine-1-carboxylate]
- mortality at 200 ppm [1, 3]: 80 to 100%
- mortality at 200 ppm [2, 4]: 80 to 100%

SMILES: CCN(C(=O)CCC(=O)NC1CC1C(F)(F)F)c1cn(-c2cccnc2)nc1Cl (stereo not shown) [Compound F54, N1-(3-Chloro-1-(pyridin-3-yl)-1H-pyrazol-4-yl)-N1-ethyl-N4-(2-(trifluoromethyl)cyclopropyl) succinamide]
- mortality at 200 ppm [1, 3]: 80 to 100%
- mortality at 200 ppm [2, 4]: 80 to 100%

SMILES: CN(CC(=O)N(CC1CC1)c1cn(-c2cccnc2)nc1Cl)C(=O)OC(C)(C)C [Compound F76, tert-Butyl (2-((3-chloro-1-(pyridin-3-yl)-1H-pyrazol-4-yl)(cyclopropylmethyl)amino)-2-oxoethyl) (methyl)carbamate]
- mortality at 200 ppm ([1]; foliar): 0 to 80%
- mortality at 200 ppm ([2]; foliar): 0 to 80%

SMILES: CCN(C(=O)C1CN(C(=O)c2cccnc2)C1)c1cn(-c2cccnc2)nc1Cl [FA17, N-(3-Chloro-1-(pyridin-3-yl)-1H-pyrazol-4-yl)-N-ethyl-1-nicotinoyl azetidine-3-carboxamide]
- mortality at 200 ppm [1, 3]: 0 to 80%
- mortality at 200 ppm [2, 4]: 0 to 80%

SMILES: CCN(C(=O)CCNC(=O)CCC(F)(F)F)c1cn(-c2cccnc2)nc1Cl [Compound F12, N-(3-((3-Chloro-1-(pyridin-3-yl)-1H-pyrazol-4-yl)(ethyl)amino)-3-oxopropyl)-4,4,4-trifluorobutanamide]
- mortality at 200 ppm [1, 3]: 80 to 100%
- mortality at 200 ppm [2, 4]: 80 to 100%

SMILES: CCN(C(=O)CCl)c1cn(-c2cccnc2)nc1Cl [CA2, 2-Chloro-N-[3-chloro-1-(3-pyridyl)pyrazol-4-yl]-N-ethyl-acetamide]
- mortality at 200 ppm [1, 3]: 0 to 80%
- mortality at 200 ppm [2, 4]: 80 to 100%

SMILES: CCN(C(=O)CCC(=O)NCc1ccc(C)o1)c1cn(-c2cccnc2)nc1Cl [Compound F13, N1-(3-Chloro-1-(pyridin-3-yl)-1H-pyrazol-4-yl)-N1-ethyl-N4-((5-methylfuran-2-yl)methyl)succinamide]
- mortality at 200 ppm [1, 3]: 0 to 80%
- mortality at 200 ppm [2, 4]: 80 to 100%

SMILES: CCN(C(=O)CCC(=O)O)c1cn(-c2cccnc2)nc1Cl [Compound C1, 4-((3-chloro-1-(pyridin-3-yl)-1H-pyrazol-4-yl)(ethyl)amino)-4-oxobutanoic acid]
- mortality at 200 ppm [1, 3]: < 0%
- mortality at 200 ppm [2, 4]: 0 to 80%

SMILES: CCN(C(=O)C1CN(C(=O)C(F)(F)F)C1)c1cn(-c2cccnc2)nc1Cl [FA14, N-(3-Chloro-1-(pyridin-3-yl)-1H-pyrazol-4-yl)-N-ethyl-1-(2,2,2-trifluoroacetyl)azetidine-3-carboxamide]
- mortality at 200 ppm [1, 3]: 80 to 100%
- mortality at 200 ppm [2, 4]: 80 to 100%

SMILES: CCN(C(=O)CCC(=O)NCC1CC1)c1cn(-c2cccnc2)nc1Cl [Compound F70, N1-(3-Chloro-1-(pyridin-3-yl)-1H-pyrazol-4-yl)-N4-(cyclopropylmethyl)-N1-ethylsuccinamide]
- mortality at 200 ppm [1, 3]: 80 to 100%
- mortality at 200 ppm [2, 4]: 80 to 100%

SMILES: CCN(C(=O)CN(C)C(=O)c1ccccc1)c1cn(-c2cccnc2)nc1Cl [Compound F83, N-(2-((3-chloro-1-(pyridin-3-yl)-1H-pyrazol-4-yl)(ethyl)amino)-2-oxoethyl)-N-methylbenzamide]
- mortality at 200 ppm [1, 3]: 80 to 100%
- mortality at 200 ppm [2, 4]: 0 to 80%

SMILES: CCN(C(=O)CCC(=O)NCc1cccc(Cl)c1)c1cn(-c2cccnc2)nc1Cl [Compound F68, N1-(3-Chloro-1-(pyridin-3-yl)-1H-pyrazol-4-yl)-N4-(3-chlorobenzyl)-N1-ethylsuccinamide]
- mortality at 200 ppm [1, 3]: 0 to 80%
- mortality at 200 ppm [2, 4]: 80 to 100%

SMILES: CCN(C(=O)CC/C(=N\OCc1ccc(C(F)(F)F)nc1)c1cccs1)c1cn(-c2cccnc2)nc1Cl [FA36, (E)-N-(3-Chloro-1-(pyridin-3-yl)-1H-pyrazol-4-yl)-N-ethyl-4-(thiophen-2-yl)-4-(((6-(trifluoromethyl)pyridin-3-yl)methoxy)imino)butanamide]
- mortality at 200 ppm [1, 3]: 0 to 80%
- mortality at 200 ppm [2, 4]: 0 to 80%

SMILES: CCN(C(=O)C1CN(C(=O)OC(C)(C)C)C1)c1cn(-c2cccnc2)nc1Cl [Compound F26]
- mortality at 200 ppm [1, 3]: 80 to 100%
- mortality at 200 ppm [2, 4]: 0 to 80%

SMILES: CCN(C(=O)CCNC(=O)CC1CC1)c1cn(-c2cccnc2)nc1Cl [Compound F75, N-(3-Chloro-1-(pyridin-3-yl)-1H-pyrazol-4-yl)-3-(2-cyclopropylacetamido)-N-ethylpropanamide]
- mortality at 200 ppm [1, 3]: 80 to 100%
- mortality at 200 ppm [2, 4]: 80 to 100%

SMILES: CCN(C(=O)C1CCN(C(=O)CCC(F)(F)F)CC1)c1cn(-c2cccnc2)nc1Cl [FA6, N-(3-Chloro-1-(pyridin-3-yl)-1H-pyrazol-4-yl)-N-ethyl-1-(4,4,4-trifluorobutanoyl)piperidine-4-carboxamide]
- mortality at 200 ppm [1, 3]: 80 to 100%
- mortality at 200 ppm [2, 4]: 0 to 80%

SMILES: CCN(C(=O)CCN(C(C)=O)C1CC1)c1cn(-c2cccnc2)nc1Cl [Compound F9, N-(3-Chloro-1-(pyridin-3-yl)-1H-pyrazol-4-yl)-3-(N-cyclopropylacetamido)-N-ethylpropanamide]
- mortality at 200 ppm [1, 3]: 80 to 100%
- mortality at 200 ppm [2, 4]: 0 to 80%
